In ChEMBL document CHEMBL5291721, “A preclinical secondary pharmacology resource illuminates target-adverse drug reaction associations of marketed drugs” (Nat Commun, 2023):

What was measured:
D(1A) dopamine receptor = D(1A) dopamine receptor (Homo sapiens, UniProt P21728); type: functional, cell-based
Bile salt export pump = Bile salt export pump (Homo sapiens, UniProt O95342); type: functional
[1] = target: T1, Cholecystokinin receptor type A (Homo sapiens, UniProt P32238)
T1 sequence (P32238 whole entry): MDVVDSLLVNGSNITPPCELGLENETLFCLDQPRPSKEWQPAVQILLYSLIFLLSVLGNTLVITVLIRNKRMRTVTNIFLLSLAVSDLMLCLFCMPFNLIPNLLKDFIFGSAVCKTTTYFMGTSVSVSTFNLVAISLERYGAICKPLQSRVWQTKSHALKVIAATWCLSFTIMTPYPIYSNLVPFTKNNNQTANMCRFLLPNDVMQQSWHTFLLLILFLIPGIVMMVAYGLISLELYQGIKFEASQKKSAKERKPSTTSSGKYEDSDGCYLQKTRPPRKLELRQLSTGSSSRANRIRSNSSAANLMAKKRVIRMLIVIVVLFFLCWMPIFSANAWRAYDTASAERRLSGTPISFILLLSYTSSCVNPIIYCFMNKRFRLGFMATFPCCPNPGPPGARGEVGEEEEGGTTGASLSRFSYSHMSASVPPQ

[2] = target: T2, Alpha-2C adrenergic receptor (Homo sapiens, UniProt P18825); type: functional
T2 sequence (P18825 whole entry): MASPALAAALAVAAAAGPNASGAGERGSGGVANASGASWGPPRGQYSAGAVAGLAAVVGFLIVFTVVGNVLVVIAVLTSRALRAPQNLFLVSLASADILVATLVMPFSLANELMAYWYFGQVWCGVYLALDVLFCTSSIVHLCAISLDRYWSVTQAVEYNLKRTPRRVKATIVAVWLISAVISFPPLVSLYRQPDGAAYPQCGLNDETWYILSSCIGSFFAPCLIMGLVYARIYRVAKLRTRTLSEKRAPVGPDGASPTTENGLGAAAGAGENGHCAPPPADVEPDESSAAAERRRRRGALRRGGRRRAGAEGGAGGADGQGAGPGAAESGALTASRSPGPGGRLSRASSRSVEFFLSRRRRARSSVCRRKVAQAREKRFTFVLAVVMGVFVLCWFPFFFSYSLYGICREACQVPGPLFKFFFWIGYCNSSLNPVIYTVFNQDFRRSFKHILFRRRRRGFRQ

[3] = target: cGMP-inhibited 3',5'-cyclic phosphodiesterase 3A (Homo sapiens, UniProt Q14432); type: functional
[4] = target: Gamma-aminobutyric acid receptor subunit alpha-1 (Rattus norvegicus, UniProt P62813); type: functional
Motilin receptor = Motilin receptor (Homo sapiens, UniProt O43193)
Adenosine receptor A1 = target: T3, Adenosine receptor A1 (Homo sapiens, UniProt P30542)
T3 sequence (P30542 whole entry): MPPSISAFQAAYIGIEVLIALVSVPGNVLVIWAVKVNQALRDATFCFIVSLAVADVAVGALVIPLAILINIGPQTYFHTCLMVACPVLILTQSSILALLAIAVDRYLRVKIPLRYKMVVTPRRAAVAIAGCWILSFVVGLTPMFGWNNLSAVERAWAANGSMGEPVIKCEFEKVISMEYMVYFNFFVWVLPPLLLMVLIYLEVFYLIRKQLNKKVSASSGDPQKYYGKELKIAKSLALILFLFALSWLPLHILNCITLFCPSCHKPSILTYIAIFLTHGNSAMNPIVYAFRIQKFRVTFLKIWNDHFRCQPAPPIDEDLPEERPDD

D(3) dopamine receptor = D(3) dopamine receptor (Homo sapiens, UniProt P35462)
[5] = target: Sodium-dependent dopamine transporter (Homo sapiens, UniProt Q01959)
[6] = target: T4, Prostaglandin G/H synthase 1 (Rattus norvegicus, UniProt Q63921); type: functional
T4 sequence (Q63921 whole entry): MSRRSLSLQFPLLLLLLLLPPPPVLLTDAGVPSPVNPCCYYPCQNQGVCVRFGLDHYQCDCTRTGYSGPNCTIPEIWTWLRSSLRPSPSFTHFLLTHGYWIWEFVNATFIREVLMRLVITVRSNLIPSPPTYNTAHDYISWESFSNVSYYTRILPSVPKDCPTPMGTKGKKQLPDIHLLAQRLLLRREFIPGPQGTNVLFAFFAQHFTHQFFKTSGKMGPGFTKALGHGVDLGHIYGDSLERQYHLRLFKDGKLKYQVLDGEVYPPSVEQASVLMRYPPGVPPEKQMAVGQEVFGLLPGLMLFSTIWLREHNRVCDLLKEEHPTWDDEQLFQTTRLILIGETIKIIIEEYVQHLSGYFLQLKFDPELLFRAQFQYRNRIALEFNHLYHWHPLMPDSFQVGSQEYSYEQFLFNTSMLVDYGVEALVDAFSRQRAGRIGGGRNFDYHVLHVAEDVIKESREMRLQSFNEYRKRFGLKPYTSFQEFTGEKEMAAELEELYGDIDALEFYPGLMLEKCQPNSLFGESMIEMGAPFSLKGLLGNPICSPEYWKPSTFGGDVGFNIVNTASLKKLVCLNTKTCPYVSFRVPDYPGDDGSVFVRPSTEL

[7] = target: Sodium-dependent noradrenaline transporter (Homo sapiens, UniProt P23975)
[8] = target: T5, Alpha-2A adrenergic receptor (Homo sapiens, UniProt P08913); type: functional, cell-based
T5 sequence (P08913 whole entry): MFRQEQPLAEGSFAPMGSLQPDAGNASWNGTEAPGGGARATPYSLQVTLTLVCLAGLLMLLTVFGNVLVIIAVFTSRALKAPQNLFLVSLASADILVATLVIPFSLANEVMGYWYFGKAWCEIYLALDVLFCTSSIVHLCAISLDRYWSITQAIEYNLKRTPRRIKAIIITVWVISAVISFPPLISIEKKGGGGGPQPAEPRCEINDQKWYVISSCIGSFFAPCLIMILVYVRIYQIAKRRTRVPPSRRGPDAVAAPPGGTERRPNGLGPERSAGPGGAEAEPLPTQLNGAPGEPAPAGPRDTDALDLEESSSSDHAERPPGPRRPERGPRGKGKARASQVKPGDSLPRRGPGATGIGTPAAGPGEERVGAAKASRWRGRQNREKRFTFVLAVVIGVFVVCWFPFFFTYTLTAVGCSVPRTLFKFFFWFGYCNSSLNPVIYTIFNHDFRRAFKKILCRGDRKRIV
Also: assay procedure not described here.

Chain of D(3) dopamine receptor (P35462 whole entry): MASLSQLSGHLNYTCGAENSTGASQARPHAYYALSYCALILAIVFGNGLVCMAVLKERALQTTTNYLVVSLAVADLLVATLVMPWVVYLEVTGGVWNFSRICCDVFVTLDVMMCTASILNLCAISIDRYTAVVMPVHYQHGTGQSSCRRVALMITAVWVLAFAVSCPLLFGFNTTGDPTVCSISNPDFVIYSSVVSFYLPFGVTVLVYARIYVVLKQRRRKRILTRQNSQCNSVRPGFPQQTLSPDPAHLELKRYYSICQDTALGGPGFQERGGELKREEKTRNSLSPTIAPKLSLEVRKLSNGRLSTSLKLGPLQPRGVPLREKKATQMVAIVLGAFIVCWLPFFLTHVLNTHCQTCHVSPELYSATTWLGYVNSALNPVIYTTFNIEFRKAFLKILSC
Chain of Bile salt export pump (O95342 whole entry): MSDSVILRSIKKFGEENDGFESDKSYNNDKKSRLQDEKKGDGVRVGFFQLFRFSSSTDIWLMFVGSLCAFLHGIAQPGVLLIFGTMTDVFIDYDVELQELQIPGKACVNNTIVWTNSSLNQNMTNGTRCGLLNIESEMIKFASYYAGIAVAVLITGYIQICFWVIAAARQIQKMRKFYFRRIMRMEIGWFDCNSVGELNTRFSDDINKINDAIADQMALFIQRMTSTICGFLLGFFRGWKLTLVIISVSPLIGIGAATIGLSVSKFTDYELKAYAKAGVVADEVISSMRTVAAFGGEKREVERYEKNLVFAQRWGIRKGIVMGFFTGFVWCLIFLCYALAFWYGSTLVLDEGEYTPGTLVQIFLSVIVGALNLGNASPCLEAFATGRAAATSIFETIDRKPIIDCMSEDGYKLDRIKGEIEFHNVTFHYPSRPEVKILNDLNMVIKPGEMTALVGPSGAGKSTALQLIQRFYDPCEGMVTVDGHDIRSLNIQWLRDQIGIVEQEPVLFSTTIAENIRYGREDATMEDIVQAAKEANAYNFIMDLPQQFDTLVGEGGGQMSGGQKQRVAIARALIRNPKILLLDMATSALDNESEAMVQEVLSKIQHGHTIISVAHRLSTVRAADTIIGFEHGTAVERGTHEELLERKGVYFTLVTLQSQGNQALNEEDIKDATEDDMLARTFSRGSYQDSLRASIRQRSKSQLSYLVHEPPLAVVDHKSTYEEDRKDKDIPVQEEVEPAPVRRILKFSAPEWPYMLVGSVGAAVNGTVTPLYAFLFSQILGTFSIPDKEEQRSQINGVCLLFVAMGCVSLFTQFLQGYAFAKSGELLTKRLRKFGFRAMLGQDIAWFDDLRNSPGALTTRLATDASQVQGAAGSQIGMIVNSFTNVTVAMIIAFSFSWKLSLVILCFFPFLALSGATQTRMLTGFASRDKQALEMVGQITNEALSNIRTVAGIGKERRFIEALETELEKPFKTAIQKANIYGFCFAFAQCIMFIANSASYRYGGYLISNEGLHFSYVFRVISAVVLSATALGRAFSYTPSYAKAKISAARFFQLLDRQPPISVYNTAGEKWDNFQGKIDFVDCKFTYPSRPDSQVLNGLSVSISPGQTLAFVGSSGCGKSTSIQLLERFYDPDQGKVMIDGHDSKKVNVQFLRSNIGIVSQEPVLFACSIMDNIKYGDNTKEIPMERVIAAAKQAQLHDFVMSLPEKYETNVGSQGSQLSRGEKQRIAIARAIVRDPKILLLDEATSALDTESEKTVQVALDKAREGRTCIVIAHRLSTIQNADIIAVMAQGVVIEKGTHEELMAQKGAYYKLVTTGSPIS
Chain of Sodium-dependent dopamine transporter (Q01959 whole entry): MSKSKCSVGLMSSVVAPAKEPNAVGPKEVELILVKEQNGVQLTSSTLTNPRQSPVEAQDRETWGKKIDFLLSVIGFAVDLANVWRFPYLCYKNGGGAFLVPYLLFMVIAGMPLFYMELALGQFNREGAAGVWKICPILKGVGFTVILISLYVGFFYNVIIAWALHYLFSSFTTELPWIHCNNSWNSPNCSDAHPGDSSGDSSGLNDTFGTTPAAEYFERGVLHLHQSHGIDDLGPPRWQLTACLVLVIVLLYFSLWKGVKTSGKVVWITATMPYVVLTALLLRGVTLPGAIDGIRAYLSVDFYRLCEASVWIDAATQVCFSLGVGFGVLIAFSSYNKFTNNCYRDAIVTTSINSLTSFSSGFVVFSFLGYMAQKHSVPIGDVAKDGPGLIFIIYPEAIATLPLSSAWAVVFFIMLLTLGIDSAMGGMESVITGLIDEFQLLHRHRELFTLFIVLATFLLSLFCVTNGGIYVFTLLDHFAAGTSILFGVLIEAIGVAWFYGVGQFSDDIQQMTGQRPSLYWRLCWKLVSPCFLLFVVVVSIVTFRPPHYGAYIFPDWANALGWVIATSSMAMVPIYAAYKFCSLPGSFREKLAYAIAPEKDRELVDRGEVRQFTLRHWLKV
Chain of cGMP-inhibited 3',5'-cyclic phosphodiesterase 3A (Q14432 whole entry): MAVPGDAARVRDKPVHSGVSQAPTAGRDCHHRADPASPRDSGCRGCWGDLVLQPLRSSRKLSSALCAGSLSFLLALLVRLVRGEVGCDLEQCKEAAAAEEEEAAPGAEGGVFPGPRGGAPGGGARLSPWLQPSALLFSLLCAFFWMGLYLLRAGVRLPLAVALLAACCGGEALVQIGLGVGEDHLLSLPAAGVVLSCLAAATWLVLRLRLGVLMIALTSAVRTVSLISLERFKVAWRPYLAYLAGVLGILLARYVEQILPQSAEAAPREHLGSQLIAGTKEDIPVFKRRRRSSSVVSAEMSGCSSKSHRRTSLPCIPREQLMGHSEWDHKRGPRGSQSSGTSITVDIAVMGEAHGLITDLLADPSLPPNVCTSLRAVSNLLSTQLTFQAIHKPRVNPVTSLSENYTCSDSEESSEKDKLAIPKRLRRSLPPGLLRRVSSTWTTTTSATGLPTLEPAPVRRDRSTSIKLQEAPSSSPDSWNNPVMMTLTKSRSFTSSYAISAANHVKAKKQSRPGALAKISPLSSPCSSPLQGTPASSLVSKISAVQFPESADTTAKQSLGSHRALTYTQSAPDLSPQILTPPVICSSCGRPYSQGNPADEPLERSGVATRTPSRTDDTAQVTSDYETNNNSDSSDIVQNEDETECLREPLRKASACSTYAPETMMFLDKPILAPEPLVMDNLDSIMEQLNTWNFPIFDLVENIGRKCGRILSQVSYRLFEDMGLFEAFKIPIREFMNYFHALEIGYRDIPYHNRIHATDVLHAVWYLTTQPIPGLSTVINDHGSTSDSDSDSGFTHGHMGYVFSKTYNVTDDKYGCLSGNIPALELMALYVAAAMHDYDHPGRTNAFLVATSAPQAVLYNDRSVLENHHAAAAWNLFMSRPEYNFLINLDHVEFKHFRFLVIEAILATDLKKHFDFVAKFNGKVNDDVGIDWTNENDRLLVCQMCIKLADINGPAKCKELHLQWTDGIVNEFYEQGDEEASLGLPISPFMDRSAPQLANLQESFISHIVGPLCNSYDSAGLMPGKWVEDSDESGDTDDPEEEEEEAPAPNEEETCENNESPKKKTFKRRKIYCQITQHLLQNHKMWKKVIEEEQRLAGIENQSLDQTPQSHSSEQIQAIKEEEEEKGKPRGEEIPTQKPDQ
Chain of Motilin receptor (O43193 whole entry): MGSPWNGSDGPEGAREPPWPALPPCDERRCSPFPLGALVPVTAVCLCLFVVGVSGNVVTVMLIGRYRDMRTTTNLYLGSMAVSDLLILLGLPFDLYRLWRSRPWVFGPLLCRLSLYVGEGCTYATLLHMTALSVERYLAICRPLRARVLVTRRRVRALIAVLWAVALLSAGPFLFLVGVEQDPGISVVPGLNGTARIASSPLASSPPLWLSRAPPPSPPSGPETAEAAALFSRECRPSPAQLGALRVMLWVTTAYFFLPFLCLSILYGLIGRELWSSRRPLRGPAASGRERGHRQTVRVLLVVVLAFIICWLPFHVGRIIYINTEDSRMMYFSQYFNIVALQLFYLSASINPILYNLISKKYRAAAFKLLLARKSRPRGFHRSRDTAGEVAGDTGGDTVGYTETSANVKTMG
Chain of Sodium-dependent noradrenaline transporter (P23975 whole entry): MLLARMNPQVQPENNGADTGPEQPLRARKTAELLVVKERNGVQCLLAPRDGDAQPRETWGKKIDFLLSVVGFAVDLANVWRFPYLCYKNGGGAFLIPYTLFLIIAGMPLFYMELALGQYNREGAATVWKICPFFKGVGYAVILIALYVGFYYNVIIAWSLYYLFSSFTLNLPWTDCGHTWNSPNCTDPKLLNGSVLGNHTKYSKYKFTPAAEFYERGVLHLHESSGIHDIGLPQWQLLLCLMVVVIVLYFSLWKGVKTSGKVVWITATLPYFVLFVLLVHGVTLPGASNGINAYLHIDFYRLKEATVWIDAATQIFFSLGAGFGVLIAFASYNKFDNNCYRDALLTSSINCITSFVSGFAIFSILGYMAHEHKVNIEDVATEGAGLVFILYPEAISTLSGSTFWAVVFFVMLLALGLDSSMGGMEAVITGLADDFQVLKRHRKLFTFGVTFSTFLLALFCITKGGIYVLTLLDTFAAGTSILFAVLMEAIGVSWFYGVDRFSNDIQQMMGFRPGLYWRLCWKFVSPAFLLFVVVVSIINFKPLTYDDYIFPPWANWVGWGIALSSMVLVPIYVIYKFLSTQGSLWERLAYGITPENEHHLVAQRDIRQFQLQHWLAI
Chain of D(1A) dopamine receptor (P21728 whole entry): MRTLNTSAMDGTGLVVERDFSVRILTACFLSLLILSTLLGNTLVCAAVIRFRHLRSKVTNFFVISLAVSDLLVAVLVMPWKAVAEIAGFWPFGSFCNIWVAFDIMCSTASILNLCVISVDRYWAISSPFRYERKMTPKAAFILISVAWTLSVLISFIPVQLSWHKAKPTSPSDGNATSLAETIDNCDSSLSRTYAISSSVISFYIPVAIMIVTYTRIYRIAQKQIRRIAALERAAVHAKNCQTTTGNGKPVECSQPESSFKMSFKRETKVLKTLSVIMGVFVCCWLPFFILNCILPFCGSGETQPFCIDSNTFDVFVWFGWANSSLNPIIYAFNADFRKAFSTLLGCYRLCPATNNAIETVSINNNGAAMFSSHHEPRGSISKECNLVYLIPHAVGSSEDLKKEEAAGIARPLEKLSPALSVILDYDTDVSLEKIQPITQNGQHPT

Row | SMILES | AC50 (D(1A) dopamine receptor) [µM] | AC50 (Bile salt export pump) [µM] | AC50 [1] [µM] | AC50 [2] [µM] | AC50 [3] [µM] | AC50 [4] [µM] | AC50 (Motilin receptor) [µM] | AC50 (Adenosine receptor A1) [µM] | AC50 (D(3) dopamine receptor) [µM] | AC50 [5] [µM] | AC50 [6] [µM] | AC50 [7] [µM] | AC50 [8] [µM]
1 | NS(=O)(=O)Cc1noc2ccccc12 [ZONISAMIDE] | > 10 | > 300 | > 10 | > 10 | > 30 | > 10 | > 10 | > 10 | > 30 | > 10 | > 10 | > 10 | > 10
2 | Cc1c(C(=O)NN2CCCCC2)nn(-c2ccc(Cl)cc2Cl)c1-c1ccc(Cl)cc1 [RIMONABANT] | > 30 | 11.6 | 17 | 13 | 8.4 | > 30 | 21 | > 30 | 15 | 23 | > 30 | 22 | > 30
3 | COc1ccccc1OCC(O)CN1CCN(CC(=O)Nc2c(C)cccc2C)CC1 (stereo unspecified) [RANOLAZINE] | > 30 | > 300 | > 30 | 1.4 | > 30 | > 30 | > 30 | > 30 | 18 | > 30 | > 30 | > 30 | 7.7
4 | CN(C)CCC=C1c2ccccc2C(C)(C)c2ccccc21 | > 30 | 130 | > 30 | 9.67 | > 30 | > 30 | 14 | > 30 | 1.89 | > 30 | > 30 | 1.05 | 6.7
5 | O=C(OCC(O)CO)c1ccccc1Nc1ccnc2cc(Cl)ccc12 (stereo unspecified) [GLAFENINE] | > 30 | 15 | > 30 | > 30 | > 30 | 0.046 | 28 | > 30 | > 30 | > 30 | > 30 | > 30 | > 30
6 | C[C@H]1CNCCc2ccc(Cl)cc21 [LORCASERIN] | > 30 | > 300 | > 30 | 3.6 | > 30 | > 30 | > 30 | > 30 | > 30 | > 30 | > 30 | 14 | 7.2
7 | Nc1ccn([C@H]2CC[C@@H](CO)O2)c(=O)n1 [ZALCITABINE] | > 10 | > 300 | > 10 | > 10 | > 30 | > 10 | > 10 | > 10 | > 10 | > 10 | > 10 | > 10 | > 10
